Assay results as given in patent publication EP1247803A2, “Indolinone compounds suitable for modulation of protein kinases” (Sugen, Inc., priority 1996, dated 1998).

Assays:
FLK-1 receptor = biological target: T1, FLK-1 receptor (Mus musculus, UniProt P35918); assay: FLK-1 ELISA (kinase activity of the FLK-1 receptor in FLK-1/NIH3T3 cells, VEGF stimulated); type: cell-based
T1 construct: expressed in transfected cells; host or cells: NIH3T3 C7#3
How it was run: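 NIH3T3 C7#3 cells expressing FLK-1 were seeded at 25.000 cells/well, serum-starved overnight in 0.1% FBS, then treated with compound for two hours at 37°C (final DMSO 0.5%) before VEGF stimulation. Receptor was captured on anti-rabbit IgG-coated ELISA plates bearing affinity-purified anti-FLK-1 antiserum.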

MET = MET biochemical kinase assay; set-up: species or system human; concentration or dose not given beside the values
How it was run: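 In this format, tyrosine phosphorylation of plate-captured human MET is followed in vitro after compound addition in ATP/divalent-cation buffer, detected by anti-phosphotyrosine-HRP with TMB substrate.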

T1 sequence (P35918 20-1345): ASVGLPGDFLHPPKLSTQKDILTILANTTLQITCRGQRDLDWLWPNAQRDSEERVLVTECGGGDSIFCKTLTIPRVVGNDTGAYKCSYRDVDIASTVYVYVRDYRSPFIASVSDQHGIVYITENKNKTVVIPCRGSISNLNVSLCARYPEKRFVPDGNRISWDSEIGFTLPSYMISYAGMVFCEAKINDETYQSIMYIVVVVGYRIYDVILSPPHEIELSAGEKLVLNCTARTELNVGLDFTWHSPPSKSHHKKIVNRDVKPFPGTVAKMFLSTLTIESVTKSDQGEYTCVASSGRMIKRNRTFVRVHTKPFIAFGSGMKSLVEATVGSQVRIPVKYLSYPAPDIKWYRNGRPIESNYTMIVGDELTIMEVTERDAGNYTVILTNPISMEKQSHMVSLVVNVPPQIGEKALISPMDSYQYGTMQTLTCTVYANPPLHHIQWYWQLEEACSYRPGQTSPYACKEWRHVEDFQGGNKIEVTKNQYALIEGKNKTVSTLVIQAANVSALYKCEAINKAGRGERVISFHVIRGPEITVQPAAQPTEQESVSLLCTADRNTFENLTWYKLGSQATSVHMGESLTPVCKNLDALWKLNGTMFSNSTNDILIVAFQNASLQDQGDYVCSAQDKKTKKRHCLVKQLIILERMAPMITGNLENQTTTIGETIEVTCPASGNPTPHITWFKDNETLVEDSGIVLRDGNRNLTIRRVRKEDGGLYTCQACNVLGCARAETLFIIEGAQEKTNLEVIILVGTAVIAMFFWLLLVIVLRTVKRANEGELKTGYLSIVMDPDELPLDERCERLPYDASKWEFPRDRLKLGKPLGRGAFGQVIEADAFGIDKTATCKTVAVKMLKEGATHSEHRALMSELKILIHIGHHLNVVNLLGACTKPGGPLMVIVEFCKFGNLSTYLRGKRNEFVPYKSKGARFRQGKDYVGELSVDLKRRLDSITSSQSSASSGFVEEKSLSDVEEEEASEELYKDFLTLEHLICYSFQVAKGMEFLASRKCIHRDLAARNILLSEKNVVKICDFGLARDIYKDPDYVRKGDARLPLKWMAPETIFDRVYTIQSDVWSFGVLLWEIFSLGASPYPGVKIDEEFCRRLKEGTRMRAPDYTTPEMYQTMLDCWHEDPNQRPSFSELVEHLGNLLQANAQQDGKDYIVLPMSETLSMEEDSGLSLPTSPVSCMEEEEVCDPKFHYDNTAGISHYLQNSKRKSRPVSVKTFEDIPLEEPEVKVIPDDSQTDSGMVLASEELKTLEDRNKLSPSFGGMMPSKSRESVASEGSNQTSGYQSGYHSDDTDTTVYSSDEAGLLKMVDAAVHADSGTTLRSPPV

| SMILES | Fik Kinase %Inhibition (FLK-1 receptor) [%] | Met Kinase % Inhibition (MET) [%] |
| --- | --- | --- |
| Cc1cc(C=C2C(=O)Nc3ccc(S(=O)(=O)Nc4ccc(C(F)(F)F)cc4)cc32)[nH]n1 [10725/E05] | -0.2 | 28.2 |
| COc1cc(C)cc(O)c1C=C1C(=O)Nc2ccc(S(=O)(=O)Nc3ccc(C(F)(F)F)cc3)cc21 [10725/E06] | -1.8 | 36.7 |
| COC(=O)Cc1c(Cl)[nH]c(C=C2C(=O)Nc3ccc(Br)c(C)c32)c1C(=O)OC [10725/C09] | 11.2 | 24.1 |
| COc1cc(C)cc(O)c1C=C1C(=O)Nc2ccc(Br)c(C)c21 [10725/C06] | -9.3 | 54.7 |
| O=C1Nc2ccc(S(=O)(=O)N3CCOCC3)cc2C1=Cc1c[nH]cn1 [10725/F11] | 9.9 | 25.7 |
| O=C1Nc2ccc(S(=O)(=O)N3CCOCC3)cc2C1=Cc1ccc(N2CCOCC2)cc1 [10725/F08] | 8.9 | 72.2 |
| CNS(=O)(=O)c1ccc2c(c1)C(=Cc1ccc(N3CCN(C=O)CC3)cc1)C(=O)N2 [10725/D07] | 2.6 | 37.0 |
| CNS(=O)(=O)c1ccc2c(c1)C(=Cc1ccc(C)o1)C(=O)N2 [10725/D04] | 3.6 | 55.1 |
| CNS(=O)(=O)c1ccc2c(c1)C(=Cc1c(Br)cnn1-c1ccc(Cl)cc1)C(=O)N2 [10725/D10] | 9.0 | 27.8 |
| COc1ccc(Br)c(C=C2C(=O)Nc3ccc(Br)c(C)c32)c1O [10725/C03] | 2.0 | 72.9 |
| CCOC(=O)c1[nH]c(C=C2C(=O)Nc3ccc(I)cc32)c(C(=O)OC)c1C [10726/B03] | 11.1 | 81.1 |
| Cc1cn(C)cc1C=C1C(=O)Nc2ccc(I)cc21 [10726/B06] | 11.3 | 76.1 |
| Cc1cn(C)cc1C=C1C(=O)Nc2c(Br)cc(Br)cc21 [10726/A06] | -4.6 | 54.7 |
| O=C1Nc2ccc(F)cc2C1=C1C(=O)Nc2c(Br)cc(Br)cc21 [10726/A08] | -4.0 | 63.1 |
| CCc1ccc(C=C2C(=O)Nc3ccc(I)cc32)s1 [10726/B10] | 3.7 | 58.5 |
| Cc1cc(C=C2C(=O)Nc3c(Br)cc(Br)cc32)cc(C(C)(C)C)c1O [10726/A04] | 7.6 | 85.7 |
| CNS(=O)(=O)c1ccc2c(c1)C(=Cc1ccc(N3CCOCC3)cc1)C(=O)N2 [10725/D08] | 1.8 | 39.2 |
| O=C1Nc2ccc(S(=O)(=O)Nc3ccc(C(F)(F)F)cc3)cc2C1=Cc1c[nH]cn1 [10725/E11] | 18.9 | 9.6 |
| Cc1ccc(C=C2C(=O)Nc3ccc(S(=O)(=O)Nc4ccc(C(F)(F)F)cc4)cc32)o1 [10725/E04] | -38.8 | 59.0 |
| O=C1Nc2ccc(CCCl)cc2C1=Cc1c(Br)cnn1-c1ccc(Cl)cc1 [10725/G10] | 11.1 | 27.7 |
| O=C1Nc2ccc(S(=O)(=O)N3CCOCC3)cc2C1=Cc1ccc[nH]1 [10717/F09] | -13.3 | 41.4 |
| Cc1c(Br)ccc2c1C(=Cc1c[nH]cn1)C(=O)N2 [10725/C11] | 104.5 | 48.4 |
| Cc1c(Br)ccc2c1C(=Cc1ccc(N3CCN(C=O)CC3)cc1)C(=O)N2 [10725/C07] | 65.0 | 38.8 |
| CNS(=O)(=O)c1ccc2c(c1)C(=Cc1cc(C)n[nH]1)C(=O)N2 [10725/D05] | 2.3 | 24.5 |
| O=C1Nc2ccccc2C1=C1C(=O)Nc2c(Br)cc(Br)cc21 [10726/A09] | -4.5 | 70.8 |
